Common to all, as to format: functional, organism-based
Assay [1] deals with Human immunodeficiency virus 1. Kind of assay: Inhibitory concentration against 188L mutant was determined.
The test system of assay [2] is Human immunodeficiency virus 1. Kind of assay: Inhibitory concentration against 103N mutant was determined.
For assay [3], the system named is Human immunodeficiency virus 1. The experiment in a line: Inhibitory concentration against 181C mutant was determined.
Assay [4] concerns Human immunodeficiency virus 1. The experiment in a line: Inhibitory concentration against wild-type HIV-1 LAI Virus was determined.
Assay [5] deals with Human immunodeficiency virus 1. The experiment in a line: Inhibitory concentration against 100I mutant was determined.
Assay [6] deals with Human immunodeficiency virus 1. Kind of assay: Inhibitory concentration against 103N and 181C mutant was determined.
In assay [7] the test system is Human immunodeficiency virus 1. The experiment in a line: Inhibitory concentration against 100I and 103N mutant was determined.
Assay [8] relates to Human immunodeficiency virus 1. The experiment in a line: Inhibitory concentration against 188L mutant strain was determined.
Assay [9] has as its system Human immunodeficiency virus 1. Kind of assay: Inhibitory concentration against 100I and 103N mutant strains was determined.
Assay [10] concerns Human immunodeficiency virus 1. Kind of assay: Inhibitory concentration against 103N and 181C mutant strains was determined.
[11] abbreviates: Human immunodeficiency virus 1, read-out: IC50.

As to `Cc1cc(C)c(Oc2nc(Nc3ccc(C#N)cc3)c(=O)n(C)c2C)c(C)c1`, the IC50 in assay [1] (setting [11]) is over 200 nM; in assay [2] (setting [11]) it was over 158 nM; in assay [3] (setting [11]), over 501 nM; in assay [4] (setting [11]), 5 nM; in assay [5] (setting [11]), over 50 nM.
The corresponding values for `Cc1ccccc1Oc1cn(C)c(=O)c(Nc2ccc(C#N)cc2)n1` are 2000 nM, 794 nM, 2510 nM, 4 nM and 1260 nM.
For the compound `Cc1ccc(Oc2cn(C)c(=O)c(Nc3ccc(F)cc3)n2)c(C)c1`, the IC50 in assay [1] was over 10 µmol; in assay [2] it was over 10 µmol; in [3], over 10 µmol; in [4], 1.258 µmol; in assay [5] it was over 10 µmol.
For `Cc1ccc(Oc2cn(C)c(=O)c(Nc3ccc(C#N)cc3)n2)c(C)c1`, the IC50 in assay [1] (setting [11]) was 398 nM; in assay [2] (setting [11]), 32 nM; in assay [3] (setting [11]), 159 nM; in assay [4] (setting [11]), under 1 nM; in assay [5] (setting [11]), 316 nM.
For `Cc1cc(C)c(Sc2cn(C)c(=O)c(Nc3ccc(C#N)cc3)n2)c(C)c1`, in that order: 631 nM, 631 nM, 1000 nM, 16 nM and over 10000 nM.
Consider `Cc1ccc(Sc2nc(Nc3ccc(Cl)cc3)c(=O)n(C)c2C)c(C)c1`, for which the IC50 in [4] (setting [11]) was 501 nM.
On the same count and under the same terms, with `Cc1ccccc1Oc1cn(Cc2ccccc2)c(=O)c(Nc2ccc(C#N)cc2)n1` the figure was 316 nM.
In the case of `Cc1ccccc1Sc1nc(Nc2ccc(C#N)cc2)c(=O)n(C)c1C`, the IC50 is over 10000 nM in [1] (setting [11]); over 10000 nM in [2] (setting [11]); over 10000 nM in assay [3] (setting [11]); 40 nM in [4] (setting [11]); over 10000 nM in assay [5] (setting [11]).
In the case of `Cc1cc(C)c(Sc2cn(C)c(=O)c(Nc3ccc(Cl)cc3)n2)c(C)c1`, the IC50 is 10000 nM in assay [1] (setting [11]); over 10000 nM in [2] (setting [11]); 6300 nM in assay [3] (setting [11]); 79 nM in assay [4] (setting [11]); over 10000 nM in [5] (setting [11]).
`Cc1ccccc1Oc1nc(Nc2ccc(C#N)cc2)c(=O)n(C)c1C`: the IC50 in assay [1] (setting [11]) was 2510 nM; in assay [2] (setting [11]), 398 nM; in assay [3] (setting [11]), 2510 nM; in [4] (setting [11]), 5 nM; in assay [5] (setting [11]), 398 nM.
Turning to `Cc1ccc(Oc2nc(Nc3ccc(C#N)cc3)c(=O)n(C)c2C)c(C)c1`, the IC50 in assay [1] (setting [11]) is 158 nM; in assay [2] (setting [11]) it was 32 nM; in [6], 1000 nM; in [7], 158 nM; in [3] (setting [11]) it was 63 nM; in [4] (setting [11]) it was 3 nM. In addition, in [5] (setting [11]), the IC50 came out at 25 nM.
`Cc1ccc(Nc2nc(Oc3ccc(C)cc3C)cn(C)c2=O)cc1` gave an IC50 in [4] of over 100 µmol.
`Cc1ccc(Sc2cn(C)c(=O)c(Nc3ccc(C#N)cc3)n2)c(C)c1`: the IC50 in [1] (setting [11]) was over 10000 nM; in assay [2] (setting [11]), over 10000 nM; in [3] (setting [11]), over 10000 nM; in [4] (setting [11]), 5 nM; in assay [5] (setting [11]) it was over 10000 nM.
Regarding `Cc1ccc(Oc2cn(C)c(=O)c(Nc3ccc(Cl)cc3)n2)c(C)c1`, the IC50 in assay [1] (setting [11]) is over 10000 nM; in [2] (setting [11]), 5010 nM; in [3] (setting [11]) it was 5010 nM; in assay [4] (setting [11]) it was 25 nM; in assay [5] (setting [11]), 5010 nM.
Take `Cc1ccc(Oc2cn(Cc3ccccc3)c(=O)c(Nc3ccc(C#N)cc3)n2)c(C)c1`: the IC50 in assay [1] (setting [11]) was over 10000 nM; in [2] (setting [11]), 631 nM; in [3] (setting [11]), 1580 nM; in [4] (setting [11]), 32 nM; in assay [5] (setting [11]) it was 631 nM.
As to `Cc1ccccc1Sc1cn(C)c(=O)c(Nc2ccc(C#N)cc2)n1`, the IC50 in assay [1] (setting [11]) is over 10000 nM; in [2] (setting [11]), over 10000 nM; in assay [3] (setting [11]) it was over 10000 nM; in assay [4] (setting [11]) it was 20 nM; in [5] (setting [11]) it was over 10000 nM.
For `Cc1cc(C#N)cc(C)c1Oc1nc(Nc2ccc(C#N)cc2)c(=O)n(C)c1C`, the IC50 in assay [6] was determined as 63 nM; in assay [7], 158 nM; in assay [3] (setting [11]), 25 nM; in assay [4] (setting [11]), 6 nM.
`Cc1ccc(Oc2cn(C)c(=O)c(Nc3ccccc3)n2)c(C)c1` gave an IC50 in assay [4] of 0.251 µmol.
Take `Cc1cc(C)c(S(=O)(=O)c2nc(Nc3ccc(C#N)cc3)c(=O)n(C)c2C)c(C)c1`: the IC50 is 320 nM in assay [2] (setting [11]); 63 nM in assay [3] (setting [11]); 3 nM in assay [4] (setting [11]); 158 nM in assay [8]; 25 nM in assay [5] (setting [11]).
Regarding `Cc1ccc(Oc2cn(C)c(=O)c(Nc3ccc(C(F)(F)F)cc3)n2)c(C)c1`, in [4] (setting [11]), the IC50 was 501 nM.
Turning to `Cc1cc(C)c(S(=O)(=O)c2cn(C)c(=O)c(Nc3ccc(C#N)cc3)n2)c(C)c1`, the IC50 was over 10000 nM in assay [1] (setting [11]); over 10000 nM in assay [2] (setting [11]); 398 nM in assay [3] (setting [11]); 8 nM in assay [4] (setting [11]); over 10000 nM in assay [5] (setting [11]).
For `Cc1ccccc1Oc1nc(Nc2ccc(Cl)cc2)c(=O)n(C)c1C`, the IC50 was over 10000 nM in [1] (setting [11]); over 10000 nM in [2] (setting [11]); over 10000 nM in [3] (setting [11]); 100 nM in assay [4] (setting [11]); 5010 nM in [5] (setting [11]).
Turning to `Cc1ccccc1Sc1nc(Nc2ccc(C#N)cc2)c(O)nc1C`, the IC50 in assay [1] (setting [11]) is 631 nM; in assay [2] (setting [11]), 631 nM; in assay [3] (setting [11]), 5010 nM; in assay [4] (setting [11]), 40 nM; in [5] (setting [11]) it was 5010 nM.
As to `Cc1ccc(Oc2nc(Nc3ccc(Cl)cc3)c(=O)n(C)c2C)c(C)c1`, the IC50 in [1] (setting [11]) is over 10000 nM; in assay [2] (setting [11]) it was 3980 nM; in assay [3] (setting [11]) it was over 10000 nM; in [4] (setting [11]) it was 126 nM; in assay [5] (setting [11]), 3980 nM.
Regarding `O=C1Nc2ccc(Cl)cc2[C@@](C#CC2CC2)(C(F)(F)F)O1` [EFAVIRENZ], the IC50 in [2] (setting [11]) is 40 nM; in [3] (setting [11]) it was 2 nM; in [9], over 10000 nM; in [10], 40 nM; in [5] (setting [11]), 40 nM.

For the origin of these results see ChEMBL document CHEMBL1145199, “Design, synthesis, and SAR of a novel pyrazinone series with non-nucleoside HIV-1 reverse transcriptase inhibitory activity” (J Med Chem, 2005).
